{
  "source": "patent US11304956B2",
  "about": "“Use of 7-bromo-5-(O-chlorophenyl)-3-propoxy-1,2-dihydro-3H-1,4-benzodiazepin-2-one for inhibition of neuropathic pain and seizures of different etiology” (priority 2016, dated 2022)",
  "key": {"[1]": {"system": "pentylenetetrazole-induced convulsions", "details": "literature data; interval in brackets; cited from earlier work"}, "MES-induced seizures": {"system": "MES-induced seizures", "details": "literature data; interval in brackets; cited from earlier work"}, "formalin test in mice": {"system": "formalin test in mice", "experiment": "Formalin test (licking time of the injected paw)", "assay_type": "in vivo, white male non-linear mice", "details": "10.00 mg/kg intraperitoneally 40 min before formalin"}, "[2]": {"system": "carrageenan rat paw edema", "experiment": "Carrageenan rat paw edema", "assay_type": "in vivo, male white rats", "details": "10.0 mg/kg intraperitoneally 40 min before carrageenan", "excerpt": "Given the fact that Compound 1 affects not only the painful, but also the inflammatory phase, we undertook an in-depth study of its anti-inflammatory effect. The most common screening method of anti-inflammatory activity is the model of inflammatory edema of the rat hind paw, induced by the subplantar administration of various phlogogenic agents. Under the conditions of carrageenan administration, a sufficiently pronounced edema reaction is observed, which slowly develops and persists for a long time. The maximum size of edema is observed in 2-4 hours.\nThe anti-inflammatory properties of the test compounds were studied in the model of carrageenan rat paw edema. Male white rats weighing 150-180 g were used in the experiments. Before the administration of the experimental substances, the volumes of the rats' paws subsequently injected by phlogogen were measured. The test compounds and the reference drug—diclofenac-sodium, were administered intraperitoneally 40 minutes prior the inflammation induction. The control group of the rats received an equivalent amount of physiological solution in the emulsion with Tween-80. Acute aseptic inflammation was induced by a 1% aqueous solution of 0.1 ml)—carrageenan injection under plantar aponeurosis of the hind paw of animals of the experimental and control groups (see Trinus F. P. Nonsteroidal anti-inflammatory drugs/F. P. Trinus, N. A. Mohort, B. M. Klebanov//K., 1975, pp. 204-231., Winter C. A. Carrageenin—induced edema in hind paw of the rat as an assay for antiinflammatory drugs/C. A. Winter, E. A. Risley, G. V. Nuss//Proc. Soc. Exp. Biol. Med.—1962.—Vol. 111.—P. 544-547). The inflammatory reaction significance was evaluated after two and four hours after the phlogogen injection. Registration of edema size was carried out by mechanical measurement of foot volume in dynamics according to Zakharevsky A. S. (see Zaharevskiy A. S. The influence of some indole derivatives on the nervous system. Diss. cand. med. science/Zaharevskiy Aleksandr Stepanovich-Minsk.—1969.—78-80 p.). The edema extent was estimated according to the difference in volume between the swollen paw and the paw before inflammation induction. The anti-inflammatory efficacy of the test compounds was determined as the ability of the test compounds to suppress the inflammatory response in the experimental animals compared to the control animals and expressed as a percentage. The calculation was carried out according to the following formula:\nThe percentage of inflammation suppression=(ΔVκ−ΔV ? /ΔVκ)·100%,\nwhere: ΔVκ—the average increase in the volume of the swollen paw in the control;\nΔV ? —the average increase in the volume of the swollen paw in animals injected by experimental substances."}, "[3]": {"system": "pentylenetetrazole-induced convulsions", "experiment": "Pentylenetetrazole-induced seizures", "assay_type": "in vivo, non-linear male mice", "details": "mice; subcutaneously; dose-effect relationship of the seizure agent", "excerpt": "In many cases, the presence of anticonvulsant (antiepileptic) effect of the compounds correlates with analgesic properties on corresponding models of neuralgia. As a general step is a primary screening of new anticonvulsant compounds on rodents with the help of pentylenetetrazole test and MES (maximal electroshock seizures) as they have a qualitative difference in development and manifestations of seizures. It is believed that the compound ability to prevent the MES-induced seizures is connected with impulse spread inhibition throughout the central nervous system. It is believed that the ability to prevent the MES-induced seizures development indicates the potential efficacy of the compound in the preventing propagation of a pulse along the neural tissue (see Tompson E. Medicines. Bioscreening/Under the editorship of A. V. Stefanova.-K.: Avitsenna, 1998.—250 p.).\nThe experiments were performed on non-linear male mice weighing 19-29 g. Pentylenetetrazole was administered subcutaneously in the cervical region of the back. […]\nFor MES-induced seizures experimental animals were exposed to electric stimulation through the corneal electrodes (50 Hz, 50 mA for mice during 0.2 s). The number of animals with the maximum tonic extension of the hind limbs, which occurs in almost 100% of the animals in the control group, was calculated. […]"}, "[4]": {"system": "model of neuropathic pain in rats", "experiment": "Model of neuropathic pain (sciatic nerve ligation), threshold of pain sensitivity by dolorimeter", "assay_type": "in vivo, male Wistar rats", "details": "for Changes in the threshold of pain perception, regarding healthy limb: damaged vs healthy limb before administration (baseline); for Threshold of pain sensitivity, damaged limb / Threshold of pain sensitivity, healthy limb: day 14 after ligation, before administration (baseline), M±m, n=10; for Pain perception threshold changes, regarding pathology before administration of compounds / Threshold of pain sensitivity 2 hours after compounds administration: 2 hours; for Threshold of pain sensitivity 2 hours after compounds administration: damaged limb", "description": "An evaluation of the antinociceptive action of the test compound (1) on a model of neuropathic pain was carried out on 50 male Wistar rats weighing 270-310 g. The model of neuropathic pain was reproduced by ligation of the sciatic nerve at the level of the upper third of the thigh at the level of the popliteal fossa higher than the site of its trifurcation by N. tibialis, N. peroneus and N. suralis (see Mironov A. N. et al. Guidelines for conducting preclinical studies of drugs. Part one.—Moscow 2012. p. 197-219). The development of the pathological process lasted 14 days. The degree of hyperalgesia was determined using a dolorimeter (Dolorimeter Baseline, USA) by determining the threshold of pain sensitivity (TPS)—the minimum pressure on the lower surface of the rat's foot (g/mm^2), which caused pain in the animal (vocalization and/or withdrawal of the foot). Each animal was given 5 attempts; the threshold value was taken with such a pressure force, which caused a positive response in at least one attempt. The threshold of pain sensitivity was compared on intact and damaged limbs on day 14 after ligation (pathology without treatment), as well as on the injured limb after 2 hours (peak of action) after the drugs administration. The test compound and the reference drug (ketorolac) were administered intragastrally (as gavage) once at doses of 0.5 and 3 mg/kg. Sciatic nerve ligation in animals caused the development of neuropathic pain syndrome, which manifested itself in behavioral reactions of the rat and lowering the threshold of pain sensitivity by an average of 44-48% (see Table 1). The analgesic effect of Compound 1 compared with ketorolac under the conditions of their intragastral administration on the model of neuropathic pain in rats (M±m, n=10, where n is the number of animals in the experiments) is shown in Table 1."}, "[5]": {"system": "thermal tail flick test in rats", "experiment": "Model of thermal stimulation (tail-flick)", "assay_type": "in vivo", "details": "n=10", "excerpt": "The problem was solved by experimental study of the antinociceptive action of the test compound 1 on the model of NP in rats and on the model of pain with the participation of central mechanisms, in particular, thermal tail flick test in rats. Based on the available data on the positive response of constant pain to anticonvulsants in the acute and paroxysmal phase and considering structure 1, we performed an evaluation of the anticonvulsant action of the compound on models of pentamethylenetetrazol-induced convulsions and seizures caused by maximal electroshock (MES). We have taken into account the possible side reaction (ulcerogenic effect) of the compound in experimental animals, expressed in the formation of defects in the mucous membrane of the gastrointestinal tract or in provocation of already existing peptic ulcer relapses. The probability of ulcers formation of medicinal origin is especially high during administration of non-steroidal anti-inflammatory drugs in high doses and in combination with their long-term use in the form of tablets.\nA more pronounced effect was after parenteral administration (see Table 2). Control: solvent (twin, distilled water, pH-corrector). Results of the study of Compound 1 and ketorolac analgesic effects on the model of thermal stimulation (tail-flick) as degree of pain sensitivity threshold increase in relation to the initial level (%), n=10, are given in Table 2."}, "[6]": {"details": "according to the literature data for ketorolac; cited from earlier work"}},
  "data": [
    {"smiles": "CC(C)C[C@H](CN)CC(=O)O", "note": "[Pregabalin, pregabalin]", "values": [
      {"measurement": "Anticonvulsive activity (ED50), Pentylenetetrazole", "setting": "[1]", "value": "31 (16-62) mg/kg"},
      {"measurement": "Anticonvulsive activity (ED50), MES", "setting": "MES-induced seizures", "value": "73 (57-93) mg/kg"}
    ]},
    {"smiles": "NCC1(CC(=O)O)CCCCC1", "note": "[Gabapentin, gabapentin]", "values": [
      {"measurement": "Anticonvulsive activity (ED50), Pentylenetetrazole", "setting": "[1]", "value": "32 (50-200) mg/kg"},
      {"measurement": "Anticonvulsive activity (ED50), MES", "setting": "MES-induced seizures", "value": "19 (16-24) mg/kg"}
    ]},
    {"smiles": "O=C(O)Cc1ccccc1Nc1c(Cl)cccc1Cl", "note": "[Diclofenac-sodium, diclofenac-sodium, reference compound]", "values": [
      {"measurement": "I phase, % effect (decrease in the time of licking of the paw)", "setting": "formalin test in mice; phase 0-5 min", "value": "51.00 ± 11.64", "unit": "%"},
      {"measurement": "II phase, effect (decrease in the time of licking of the paw)", "setting": "formalin test in mice; phase 15-40 min", "value": "53.60 ± 11.02"},
      {"measurement": "Inhibition of edema in 2 hours (%)", "setting": "[2]", "value": "43.0 ± 7.0", "unit": "%"},
      {"measurement": "Inhibition of edema in 4 hours (%)", "setting": "[2]", "value": "57.10 ± 8.3", "unit": "%"}
    ]},
    {"smiles": "C1CCc2nnnn2CC1", "note": "[pentylenetetrazole, reference compound]", "values": [
      {"measurement": "ED95 of pentylenetetrazole (seizure agent)", "setting": "[3]", "value": 120, "unit": "mg/kg"}
    ]},
    {"smiles": "O=C(c1ccccc1)c1ccc2n1CCC2C(=O)O", "note": "(stereo not drawn) [Ketorolac, ketorolac]", "values": [
      {"measurement": "Changes in the threshold of pain perception, regarding healthy limb", "setting": "[4]; 0.5 mg/kg group", "value": "−47.3 ± 3.9", "unit": "%"},
      {"measurement": "Threshold of pain sensitivity, damaged limb", "setting": "[4]; 0.5 mg/kg group", "value": "287.9 ± 19.85", "unit": "g/mm^2"},
      {"measurement": "Threshold of pain sensitivity, healthy limb", "setting": "[4]; 0.5 mg/kg group", "value": "550.0 ± 19.0", "unit": "g/mm^2"},
      {"measurement": "Pain perception threshold changes, regarding pathology before administration of compounds", "setting": "[4]; 0.5 mg/kg intragastrally once", "value": "+24.6 ± 5.2%"},
      {"measurement": "Pain perception threshold changes, regarding pathology before administration of compounds", "setting": "[4]; 0.5 mg/kg intragastrally once, listed as ketorolac", "value": "+24.6%"},
      {"measurement": "Threshold of pain sensitivity 2 hours after compounds administration", "setting": "[4]; 0.5 mg/kg intragastrally once", "value": "355.0 ± 19.5", "unit": "g/mm^2"},
      {"measurement": "Changes in the threshold of pain perception, regarding healthy limb", "setting": "[4]; 3 mg/kg group", "value": "−45.7 ± 3.5", "unit": "%"},
      {"measurement": "Threshold of pain sensitivity, damaged limb", "setting": "[4]; 3 mg/kg group", "value": "296.4 ± 19.6", "unit": "g/mm^2"},
      {"measurement": "Threshold of pain sensitivity, healthy limb", "setting": "[4]; 3 mg/kg group", "value": "547.1 ± 15.1", "unit": "g/mm^2"},
      {"measurement": "Pain perception threshold changes, regarding pathology before administration of compounds", "setting": "[4]; 3 mg/kg intragastrally once", "value": "+70.1 ± 6.2%"},
      {"measurement": "Pain perception threshold changes, regarding pathology before administration of compounds", "setting": "[4]; 3 mg/kg intragastrally once, listed as ketorolac", "value": "+70.1%"},
      {"measurement": "Threshold of pain sensitivity 2 hours after compounds administration", "setting": "[4]; 3 mg/kg intragastrally once", "value": "501.4 ± 34.9", "unit": "g/mm^2"},
      {"measurement": "Degree of pain sensitivity threshold increase in relation to the initial level", "setting": "[5]; 0.5 mg/kg orally, 1 hour", "value": "+7.5%"},
      {"measurement": "Degree of pain sensitivity threshold increase in relation to the initial level", "setting": "[5]; 0.5 mg/kg orally, 2 hours", "value": "+14.6%"},
      {"measurement": "Degree of pain sensitivity threshold increase in relation to the initial level", "setting": "[5]; 0.5 mg/kg orally, 4 hours", "value": "+28.6%"},
      {"measurement": "Degree of pain sensitivity threshold increase in relation to the initial level", "setting": "[5]; 0.5 mg/kg orally, 6 hours", "value": "+12.1%"},
      {"measurement": "Degree of pain sensitivity threshold increase in relation to the initial level", "setting": "[5]; 3 mg/kg orally, 1 hour", "value": "+43.4%"},
      {"measurement": "Degree of pain sensitivity threshold increase in relation to the initial level", "setting": "[5]; 3 mg/kg orally, 2 hours", "value": "+75.7%"},
      {"measurement": "Degree of pain sensitivity threshold increase in relation to the initial level", "setting": "[5]; 3 mg/kg orally, 4 hours", "value": "+65.7%"},
      {"measurement": "Degree of pain sensitivity threshold increase in relation to the initial level", "setting": "[5]; 3 mg/kg orally, 6 hours", "value": "+28.1%"},
      {"measurement": "ED50 (analgesic effect)", "setting": "[6]", "value": 3, "unit": "mg/kg"}
    ]}
  ]
}
